PubChem BioAssay (NCI)
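Five concentrations, 48 hours, 96-well plates. GI50 = concentration required for 50% inhibition of growth. TGI is the concentration that stops growth completely.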

Key:
Assay in all cases: inhibition of tumour cell growth, NCI panel, 48 h
OVCAR-5 ovarian = system: OVCAR-5 ovarian
SW-620 colon = system: SW-620 colon
CAKI-1 renal = system: CAKI-1 renal
NCI-H23 lung = system: NCI-H23 lung
T-47D breast = system: T-47D breast
UO-31 renal = system: UO-31 renal
A549 NSCLC = system: A549 NSCLC
MDA-MB-231 breast = system: MDA-MB-231 breast
HCC-2998 colon = system: HCC-2998 colon
MDA-MB-435 = system: MDA-MB-435
MCF7 breast = system: MCF7 breast
IGROV1 ovarian = system: IGROV1 ovarian
U251 CNS = system: U251 CNS
SK-MEL-5 melanoma = system: SK-MEL-5 melanoma
SF-268 CNS = system: SF-268 CNS
NCI-H226 lung = system: NCI-H226 lung
UACC-62 melanoma = system: UACC-62 melanoma
TK-10 renal = system: TK-10 renal
COLO 205 colon = system: COLO 205 colon
MOLT-4 leukemia = system: MOLT-4 leukemia
DU-145 prostate = system: DU-145 prostate
NCI/ADR-RES ovarian = system: NCI/ADR-RES ovarian
SNB-75 CNS = system: SNB-75 CNS
NCI-H460 lung = system: NCI-H460 lung
HOP-92 NSCLC = system: HOP-92 NSCLC
OVCAR-8 ovarian = system: OVCAR-8 ovarian
EKVX NSCLC = system: EKVX NSCLC
HL-60(TB) leukemia = system: HL-60(TB) leukemia
SN12C renal = system: SN12C renal
A498 renal = system: A498 renal
HOP-62 NSCLC = system: HOP-62 NSCLC
RXF 393 renal = system: RXF 393 renal
SK-MEL-2 melanoma = system: SK-MEL-2 melanoma
UACC-257 melanoma = system: UACC-257 melanoma
SNB-19 CNS = system: SNB-19 CNS
K-562 leukemia = system: K-562 leukemia
OVCAR-3 ovarian = system: OVCAR-3 ovarian
NCI-H522 lung = system: NCI-H522 lung
SK-MEL-28 melanoma = system: SK-MEL-28 melanoma
HS 578T breast = system: HS 578T breast
LOX IMVI melanoma = system: LOX IMVI melanoma
ACHN renal = system: ACHN renal
BT-549 breast = system: BT-549 breast
786-0 renal = system: 786-0 renal
SF-539 CNS = system: SF-539 CNS
SR leukemia = system: SR leukemia
CCRF-CEM leukemia = system: CCRF-CEM leukemia
HCT-116 colon = system: HCT-116 colon
SK-OV-3 ovarian = system: SK-OV-3 ovarian
KM12 colon = system: KM12 colon
OVCAR-4 ovarian = system: OVCAR-4 ovarian
PC-3 prostate = system: PC-3 prostate
MALME-3M melanoma = system: MALME-3M melanoma
M14 melanoma = system: M14 melanoma
HT29 colon = system: HT29 colon
HCT-15 colon = system: HCT-15 colon
SF-295 CNS = system: SF-295 CNS
RPMI-8226 leukemia = system: RPMI-8226 leukemia

## Nc1c(C(=O)Nc2ccccc2F)sc2nc3c(cc12)C(=O)CCC3
OVCAR-5 ovarian
  GI50: 4.05 µM
  TGI: > 100 µM
SW-620 colon
  GI50: 0.721 µM
  TGI: > 100 µM
CAKI-1 renal
  GI50: 1.76 µM
  TGI: > 100 µM
NCI-H23 lung
  GI50: 2.04 µM
  TGI: > 100 µM
T-47D breast
  GI50: 6.79 µM
  TGI: > 100 µM
UO-31 renal
  GI50: > 100 µM
  TGI: > 100 µM
A549 NSCLC
  GI50: 0.898 µM
  TGI: > 100 µM
MDA-MB-231 breast
  GI50: 7.53 µM
  TGI: > 100 µM
HCC-2998 colon
  GI50: 2.2 µM
  TGI: > 100 µM
MDA-MB-435
  GI50: 0.216 µM
  TGI: 0.661 µM
MCF7 breast
  GI50: 0.499 µM
  TGI: > 100 µM
IGROV1 ovarian
  GI50: 2.92 µM
  TGI: > 100 µM
U251 CNS
  GI50: 1.23 µM
  TGI: > 100 µM
SK-MEL-5 melanoma
  GI50: 0.382 µM
  TGI: > 100 µM
SF-268 CNS
  GI50: > 30.6 µM
  TGI: > 100 µM
NCI-H226 lung
  GI50: 10.5 µM
  TGI: > 100 µM
UACC-62 melanoma
  GI50: 0.654 µM
  TGI: > 100 µM
TK-10 renal
  GI50: 4.3 µM
  TGI: > 100 µM
COLO 205 colon
  GI50: 0.696 µM
  TGI: 6.81 µM
MOLT-4 leukemia
  GI50: > 100 µM
  TGI: > 100 µM
DU-145 prostate
  GI50: 1.81 µM
  TGI: > 28.6 µM
NCI/ADR-RES ovarian
  GI50: 0.509 µM
  TGI: 5.09 µM
SNB-75 CNS
  GI50: 1.88 µM
  TGI: > 57.8 µM
NCI-H460 lung
  GI50: 0.541 µM
  TGI: > 63.1 µM
HOP-92 NSCLC
  GI50: 0.121 µM
  TGI: > 100 µM
OVCAR-8 ovarian
  GI50: 13.8 µM
  TGI: > 100 µM
EKVX NSCLC
  TGI: > 100 µM
HL-60(TB) leukemia
  GI50: 2.4 µM
  TGI: > 100 µM
SN12C renal
  GI50: > 65.3 µM
  TGI: > 100 µM
A498 renal
  GI50: 0.47 µM
  TGI: > 24 µM
HOP-62 NSCLC
  GI50: 4.12 µM
  TGI: > 100 µM
RXF 393 renal
  GI50: 0.738 µM
  TGI: 3.82 µM
SK-MEL-2 melanoma
  GI50: 0.683 µM
  TGI: > 100 µM
UACC-257 melanoma
  GI50: > 100 µM
  TGI: > 100 µM
SNB-19 CNS
  GI50: 2.6 µM
  TGI: > 100 µM
K-562 leukemia
  GI50: 0.553 µM
  TGI: > 100 µM
OVCAR-3 ovarian
  GI50: 0.576 µM
  TGI: 3.9 µM
NCI-H522 lung
  GI50: 0.476 µM
  TGI: 3.9 µM
SK-MEL-28 melanoma
  GI50: 6.33 µM
  TGI: > 100 µM
HS 578T breast
  GI50: 2.01 µM
  TGI: > 25.5 µM
LOX IMVI melanoma
  GI50: 8.58 µM
  TGI: > 100 µM
ACHN renal
  GI50: > 21.5 µM
  TGI: > 100 µM
BT-549 breast
  TGI: > 52.5 µM
786-0 renal
  GI50: 13.6 µM
  TGI: > 100 µM
SF-539 CNS
  GI50: 0.817 µM
  TGI: > 22.2 µM
SR leukemia
  GI50: 1.68 µM
  TGI: > 100 µM
CCRF-CEM leukemia
  GI50: 3.46 µM
  TGI: > 100 µM
HCT-116 colon
  GI50: 0.646 µM
  TGI: > 100 µM
SK-OV-3 ovarian
  GI50: 0.746 µM
  TGI: > 100 µM
KM12 colon
  GI50: 0.547 µM
  TGI: > 100 µM
OVCAR-4 ovarian
  GI50: > 21 µM
  TGI: > 100 µM
PC-3 prostate
  GI50: 0.959 µM
  TGI: > 100 µM
MALME-3M melanoma
  GI50: 1.44 µM
  TGI: > 100 µM
M14 melanoma
  GI50: 0.645 µM
  TGI: > 100 µM
HT29 colon
  GI50: 0.531 µM
  TGI: > 100 µM
HCT-15 colon
  GI50: 0.642 µM
  TGI: > 100 µM
SF-295 CNS
  GI50: 0.611 µM
  TGI: > 92.6 µM

## O=[N+]([O-])c1ccc2ncccc2c1Cl
OVCAR-5 ovarian
  GI50: 3.44 µM
  TGI: > 100 µM
SW-620 colon
  GI50: 0.627 µM
  TGI: 16 µM
CAKI-1 renal
  GI50: 1.69 µM
  TGI: 3.45 µM
NCI-H23 lung
  GI50: 6.96 µM
  TGI: 29.8 µM
T-47D breast
  GI50: 11.2 µM
  TGI: 42.1 µM
UO-31 renal
  GI50: 5.02 µM
  TGI: > 100 µM
A549 NSCLC
  GI50: 3.29 µM
  TGI: > 100 µM
MDA-MB-231 breast
  GI50: 3.46 µM
  TGI: 11.9 µM
HCC-2998 colon
  GI50: 3.67 µM
  TGI: 14.2 µM
MDA-MB-435
  GI50: 2.18 µM
  TGI: 9.07 µM
MCF7 breast
  GI50: 3.55 µM
  TGI: 12.9 µM
IGROV1 ovarian
  GI50: 3.89 µM
  TGI: 13.8 µM
U251 CNS
  GI50: 3.38 µM
  TGI: 11.8 µM
SK-MEL-5 melanoma
  GI50: 2.95 µM
  TGI: 10 µM
SF-268 CNS
  GI50: 3.89 µM
  TGI: 13.9 µM
NCI-H226 lung
  GI50: 6.22 µM
  TGI: > 100 µM
UACC-62 melanoma
  GI50: 5.84 µM
  TGI: 20.4 µM
RPMI-8226 leukemia
  GI50: 0.435 µM
  TGI: 6.57 µM
TK-10 renal
  GI50: 6.38 µM
  TGI: 46.1 µM
MOLT-4 leukemia
  GI50: 3.07 µM
  TGI: 12.2 µM
DU-145 prostate
  GI50: 3.4 µM
  TGI: 10.2 µM
NCI/ADR-RES ovarian
  GI50: 3.92 µM
  TGI: > 100 µM
SNB-75 CNS
  GI50: 4.67 µM
  TGI: > 100 µM
NCI-H460 lung
  GI50: 3.47 µM
  TGI: 16.6 µM
HOP-92 NSCLC
  GI50: 6.57 µM
  TGI: 24.6 µM
OVCAR-8 ovarian
  GI50: 2.96 µM
  TGI: 8.69 µM
EKVX NSCLC
  GI50: 12.3 µM
  TGI: 29.2 µM
HL-60(TB) leukemia
  GI50: 1.92 µM
  TGI: 7.78 µM
SN12C renal
  GI50: 4.3 µM
  TGI: > 100 µM
A498 renal
  GI50: 10.8 µM
  TGI: 31.3 µM
HOP-62 NSCLC
  GI50: 5.64 µM
  TGI: > 100 µM
RXF 393 renal
  GI50: 2.74 µM
  TGI: 8.81 µM
SK-MEL-2 melanoma
  GI50: 9.21 µM
  TGI: 30.5 µM
UACC-257 melanoma
  GI50: 7.62 µM
  TGI: 29.3 µM
SNB-19 CNS
  GI50: 4.2 µM
  TGI: 23.4 µM
K-562 leukemia
  GI50: 0.382 µM
  TGI: 27.1 µM
OVCAR-3 ovarian
  GI50: 2.77 µM
  TGI: 6.99 µM
NCI-H522 lung
  GI50: 2.74 µM
  TGI: 6.59 µM
SK-MEL-28 melanoma
  GI50: 6.29 µM
  TGI: 20.8 µM
HS 578T breast
  GI50: 7.69 µM
  TGI: > 100 µM
LOX IMVI melanoma
  GI50: 2.4 µM
  TGI: 14.5 µM
ACHN renal
  GI50: 4.69 µM
  TGI: 22.3 µM
BT-549 breast
  GI50: 3.29 µM
  TGI: 9.57 µM
786-0 renal
  GI50: 3.28 µM
  TGI: 20.4 µM
SF-539 CNS
  GI50: 2.76 µM
  TGI: 34.2 µM
SR leukemia
  GI50: 0.308 µM
  TGI: 4.12 µM
CCRF-CEM leukemia
  GI50: 2.54 µM
  TGI: 29.8 µM
HCT-116 colon
  GI50: 1.57 µM
  TGI: 7.23 µM
SK-OV-3 ovarian
  GI50: 3.13 µM
  TGI: > 100 µM
KM12 colon
  GI50: 2.17 µM
  TGI: 9.14 µM
PC-3 prostate
  GI50: 3.75 µM
  TGI: 20.2 µM
MALME-3M melanoma
  GI50: 15.2 µM
  TGI: 54.4 µM
M14 melanoma
  GI50: 3.01 µM
  TGI: 11.5 µM
HT29 colon
  GI50: 3.45 µM
  TGI: 9.29 µM
HCT-15 colon
  GI50: 3.43 µM
  TGI: 14.4 µM
